Among the data in ChEMBL document CHEMBL1909046, “DrugMatrix in vitro pharmacology data” are IC50 and Ki values, retold here.

The first assay concerns the target Protein kinase C alpha type (Homo sapiens, UniProt P17252).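 Note: inhibition of PKCalpha kinase activity measured in an enzyme assay with histone as the phosphorylation substrate; in other assays of this panel Not Active means under 50% inhibition at 10 µM.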
Assay: not given
Type of assay: cell-based. Particulars: sf9.
Turning to `Clc1ccccc1C(c1ccccc1)(c1ccccc1)n1ccnc1` [CLOTRIMAZOLE], the IC50 (as a rule, the concentration needed to halve the response being measured) was “Not Active”.
On the same count and under the same terms, under `CC(C)(O)c1ccccc1CC[C@@H](SCC1(CC(=O)O)CC1)c1cccc(/C=C/c2ccc3ccc(Cl)cc3n2)c1` [MONTELUKAST] stands “Not Active”.

For the next assay, the target named is Epidermal growth factor receptor (Homo sapiens, UniProt P00533). The experiment in a line: DRUGMATRIX: Protein Tyrosine Kinase, EGF Receptor enzyme inhibition (substrate: Poly(Glu:Tyr)). Format: cell-based, Insect cells. Particulars: Not Active = under 50% inhibition at 10 µM; read-out: IC50.
Chain of Epidermal growth factor receptor (P00533 whole entry): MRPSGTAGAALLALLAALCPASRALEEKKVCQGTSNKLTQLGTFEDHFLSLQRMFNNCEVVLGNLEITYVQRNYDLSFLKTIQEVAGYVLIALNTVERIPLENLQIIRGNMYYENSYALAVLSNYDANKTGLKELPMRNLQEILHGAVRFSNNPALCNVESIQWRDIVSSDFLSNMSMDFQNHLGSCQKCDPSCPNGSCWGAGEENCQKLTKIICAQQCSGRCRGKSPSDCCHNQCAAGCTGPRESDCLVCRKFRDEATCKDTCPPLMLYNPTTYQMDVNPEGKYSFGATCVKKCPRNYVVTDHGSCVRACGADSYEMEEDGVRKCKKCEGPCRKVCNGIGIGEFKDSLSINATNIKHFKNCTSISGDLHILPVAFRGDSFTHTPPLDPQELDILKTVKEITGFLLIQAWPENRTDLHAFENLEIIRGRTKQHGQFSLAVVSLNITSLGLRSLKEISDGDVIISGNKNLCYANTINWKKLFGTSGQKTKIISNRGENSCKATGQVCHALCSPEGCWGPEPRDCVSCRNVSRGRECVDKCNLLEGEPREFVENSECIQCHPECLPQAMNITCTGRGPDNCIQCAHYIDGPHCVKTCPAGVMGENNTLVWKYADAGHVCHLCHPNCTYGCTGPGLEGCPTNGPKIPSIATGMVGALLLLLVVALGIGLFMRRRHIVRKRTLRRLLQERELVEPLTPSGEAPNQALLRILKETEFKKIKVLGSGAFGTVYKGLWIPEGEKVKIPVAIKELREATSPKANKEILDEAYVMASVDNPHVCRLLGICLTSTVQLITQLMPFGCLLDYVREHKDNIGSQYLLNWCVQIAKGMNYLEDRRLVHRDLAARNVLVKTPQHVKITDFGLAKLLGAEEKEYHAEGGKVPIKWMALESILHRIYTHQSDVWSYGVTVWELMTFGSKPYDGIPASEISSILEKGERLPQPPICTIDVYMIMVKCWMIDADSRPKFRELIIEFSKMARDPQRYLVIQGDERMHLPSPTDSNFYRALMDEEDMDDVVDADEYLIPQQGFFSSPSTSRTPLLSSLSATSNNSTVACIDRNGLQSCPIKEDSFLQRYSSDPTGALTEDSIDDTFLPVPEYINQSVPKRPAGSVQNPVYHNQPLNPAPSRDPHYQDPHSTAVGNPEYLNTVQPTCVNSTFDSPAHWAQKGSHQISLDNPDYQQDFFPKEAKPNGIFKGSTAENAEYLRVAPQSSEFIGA
Consider `Clc1ccccc1C(c1ccccc1)(c1ccccc1)n1ccnc1` [CLOTRIMAZOLE], for which the IC50 came out at 69.4 µM.
On the same count and under the same terms, as for `CC(C)(O)c1ccccc1CC[C@@H](SCC1(CC(=O)O)CC1)c1cccc(/C=C/c2ccc3ccc(Cl)cc3n2)c1` [MONTELUKAST], the figure is 3.2 µM.

A further assay deals with T1, Alpha-1A adrenergic receptor (Rattus norvegicus, UniProt P43140).
T1 sequence (P43140 whole entry): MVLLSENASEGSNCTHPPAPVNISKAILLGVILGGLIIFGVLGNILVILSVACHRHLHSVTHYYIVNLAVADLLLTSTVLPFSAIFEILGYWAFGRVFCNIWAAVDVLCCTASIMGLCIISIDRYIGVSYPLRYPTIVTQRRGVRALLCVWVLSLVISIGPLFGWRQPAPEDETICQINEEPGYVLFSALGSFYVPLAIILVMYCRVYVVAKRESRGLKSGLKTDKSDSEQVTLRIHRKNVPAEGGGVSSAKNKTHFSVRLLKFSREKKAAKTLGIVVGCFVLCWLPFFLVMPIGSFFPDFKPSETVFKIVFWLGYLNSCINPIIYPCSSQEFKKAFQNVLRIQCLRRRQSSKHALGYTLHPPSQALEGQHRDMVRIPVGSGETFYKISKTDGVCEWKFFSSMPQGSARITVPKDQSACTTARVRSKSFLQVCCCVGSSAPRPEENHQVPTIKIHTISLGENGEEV
The experiment in a line: DRUGMATRIX: Alpha-1A adrenergic receptor radioligand binding (ligand: prazosin). Format: cell membranes, Wistar, Submaxillary gland, Membrane. Particulars: Not Active = under 50% inhibition at 10 µM.
Take `CC(C)(O)c1ccccc1CC[C@@H](SCC1(CC(=O)O)CC1)c1cccc(/C=C/c2ccc3ccc(Cl)cc3n2)c1` [MONTELUKAST]: the IC50 entry was “Not Active”.

The same assay, now with this note: Not Active = under 50% inhibition at 10 µM; read-out: IC50.
Take `Clc1ccccc1C(c1ccccc1)(c1ccccc1)n1ccnc1` [CLOTRIMAZOLE]: the IC50 was 26.3 µM.

Still in this assay, the particulars now being: Not Active = under 50% inhibition at 10 µM; read-out: Ki.
With `Clc1ccccc1C(c1ccccc1)(c1ccccc1)n1ccnc1` [CLOTRIMAZOLE], the Ki – broadly, the dissociation constant of the complex between target and ligand, obtained from inhibition or displacement – stood at 10.7 µM.

A further assay deals with Prostaglandin G/H synthase 1 (Homo sapiens, UniProt P23219). Briefly: biochemical. Type of assay: tissue-based, Platelet. Particulars: platelet.
Chain of Prostaglandin G/H synthase 1 (P23219 whole entry): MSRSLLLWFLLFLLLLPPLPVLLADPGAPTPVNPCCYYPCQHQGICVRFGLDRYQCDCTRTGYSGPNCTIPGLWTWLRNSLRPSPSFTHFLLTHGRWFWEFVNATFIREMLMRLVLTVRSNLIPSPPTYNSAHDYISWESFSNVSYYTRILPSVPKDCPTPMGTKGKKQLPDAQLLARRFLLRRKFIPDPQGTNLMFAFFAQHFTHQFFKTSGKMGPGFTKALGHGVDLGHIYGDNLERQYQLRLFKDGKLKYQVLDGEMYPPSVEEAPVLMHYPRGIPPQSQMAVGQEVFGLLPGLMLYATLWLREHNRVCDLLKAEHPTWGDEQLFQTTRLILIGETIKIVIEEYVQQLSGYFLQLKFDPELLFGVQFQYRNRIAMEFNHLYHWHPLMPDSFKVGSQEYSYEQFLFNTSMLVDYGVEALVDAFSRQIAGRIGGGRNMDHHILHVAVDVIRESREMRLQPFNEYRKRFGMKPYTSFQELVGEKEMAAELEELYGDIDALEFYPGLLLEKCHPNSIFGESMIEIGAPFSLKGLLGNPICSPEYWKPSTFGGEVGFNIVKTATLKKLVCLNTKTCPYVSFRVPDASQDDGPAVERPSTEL
Regarding `Clc1ccccc1C(c1ccccc1)(c1ccccc1)n1ccnc1` [CLOTRIMAZOLE], the IC50 result is “Not Active”.
The same measure, in the same setting: as for `CC(C)(O)c1ccccc1CC[C@@H](SCC1(CC(=O)O)CC1)c1cccc(/C=C/c2ccc3ccc(Cl)cc3n2)c1` [MONTELUKAST], the entry is “Not Active”.

For a further assay, the target named is T2, D(4) dopamine receptor (Homo sapiens, UniProt P21917).
T2 sequence (P21917 whole entry): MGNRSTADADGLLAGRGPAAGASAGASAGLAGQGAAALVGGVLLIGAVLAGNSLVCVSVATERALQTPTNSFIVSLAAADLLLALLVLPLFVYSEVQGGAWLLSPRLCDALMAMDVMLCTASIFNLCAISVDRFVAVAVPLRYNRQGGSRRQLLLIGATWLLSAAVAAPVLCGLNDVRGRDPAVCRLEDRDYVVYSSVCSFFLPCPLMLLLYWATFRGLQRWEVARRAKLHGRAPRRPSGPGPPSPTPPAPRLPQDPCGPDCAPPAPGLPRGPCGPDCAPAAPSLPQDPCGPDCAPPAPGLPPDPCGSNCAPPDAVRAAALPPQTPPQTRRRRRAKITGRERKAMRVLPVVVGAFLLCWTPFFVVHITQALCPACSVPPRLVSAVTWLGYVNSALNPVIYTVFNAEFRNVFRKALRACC
Briefly: DRUGMATRIX: Dopamine D4.2 radioligand binding (ligand: [3H] Spiperone). Type of assay: cell membranes, CHO-K1, Membrane. Particulars: Not Active = under 50% inhibition at 10 µM; read-out: IC50.
For `Clc1ccccc1C(c1ccccc1)(c1ccccc1)n1ccnc1` [CLOTRIMAZOLE], the IC50 is 19.9 µM.

Still in this assay, the particulars now being: Not Active = under 50% inhibition at 10 µM; read-out: Ki.
In the case of `Clc1ccccc1C(c1ccccc1)(c1ccccc1)n1ccnc1` [CLOTRIMAZOLE], the Ki was 6.99 µM.

The same assay, now with this note: cho-k1; Not Active = under 50% inhibition at 10 µM.
On to `CC(C)(O)c1ccccc1CC[C@@H](SCC1(CC(=O)O)CC1)c1cccc(/C=C/c2ccc3ccc(Cl)cc3n2)c1` [MONTELUKAST], for which the IC50 result was “Not Active”.

The next assay deals with Beta-3 adrenergic receptor (Homo sapiens, UniProt P13945). The experiment in a line: DRUGMATRIX: Adrenergic beta3 radioligand binding (ligand: [125I] Cyanopindolol). Particulars: Not Active = under 50% inhibition at 10 µM; read-out: IC50. Format: cell membranes, HEK293, Membrane.
Chain of Beta-3 adrenergic receptor (P13945 whole entry): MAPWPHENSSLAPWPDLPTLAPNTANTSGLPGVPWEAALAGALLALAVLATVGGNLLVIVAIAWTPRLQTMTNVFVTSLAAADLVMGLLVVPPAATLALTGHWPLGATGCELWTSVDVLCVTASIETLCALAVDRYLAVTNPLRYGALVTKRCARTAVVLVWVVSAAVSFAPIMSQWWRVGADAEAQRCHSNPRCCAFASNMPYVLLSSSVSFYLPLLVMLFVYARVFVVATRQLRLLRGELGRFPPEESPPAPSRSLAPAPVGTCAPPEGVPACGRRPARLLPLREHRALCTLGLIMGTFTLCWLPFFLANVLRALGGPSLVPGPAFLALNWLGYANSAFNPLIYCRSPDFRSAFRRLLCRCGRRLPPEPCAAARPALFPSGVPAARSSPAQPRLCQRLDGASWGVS
In the case of `Clc1ccccc1C(c1ccccc1)(c1ccccc1)n1ccnc1` [CLOTRIMAZOLE], the 50% inhibitory concentration (IC50) amounted to 7.21 µM.
Same read-out and setting: as for `CC(C)(O)c1ccccc1CC[C@@H](SCC1(CC(=O)O)CC1)c1cccc(/C=C/c2ccc3ccc(Cl)cc3n2)c1` [MONTELUKAST], the figure is 4.3 µM.

The assay is the same for the next values; noted with them: Not Active = under 50% inhibition at 10 µM; read-out: Ki.
Take `Clc1ccccc1C(c1ccccc1)(c1ccccc1)n1ccnc1` [CLOTRIMAZOLE]: the inhibitory constant (Ki) was 5.41 µM.
`CC(C)(O)c1ccccc1CC[C@@H](SCC1(CC(=O)O)CC1)c1cccc(/C=C/c2ccc3ccc(Cl)cc3n2)c1` [MONTELUKAST]: the Ki was 3.2 µM.

The target in a further assay is Glycine receptor (Rattus norvegicus, UniProt P22771+P24524+P07727+P20781). Note: in other assays of this panel Not Active means under 50% inhibition at 10 µM.
Assay: not given
Format: cell membranes, Wistar, Spinal cord, Membrane.
Conditions: not given
As to `Clc1ccccc1C(c1ccccc1)(c1ccccc1)n1ccnc1` [CLOTRIMAZOLE], the IC50 entry is “Not Active”.
On the same count and under the same terms, under `CC(C)(O)c1ccccc1CC[C@@H](SCC1(CC(=O)O)CC1)c1cccc(/C=C/c2ccc3ccc(Cl)cc3n2)c1` [MONTELUKAST] stands “Not Active”.

Another assay addresses T3, Alpha-1D adrenergic receptor (Homo sapiens, UniProt P25100).
T3 sequence (P25100 whole entry): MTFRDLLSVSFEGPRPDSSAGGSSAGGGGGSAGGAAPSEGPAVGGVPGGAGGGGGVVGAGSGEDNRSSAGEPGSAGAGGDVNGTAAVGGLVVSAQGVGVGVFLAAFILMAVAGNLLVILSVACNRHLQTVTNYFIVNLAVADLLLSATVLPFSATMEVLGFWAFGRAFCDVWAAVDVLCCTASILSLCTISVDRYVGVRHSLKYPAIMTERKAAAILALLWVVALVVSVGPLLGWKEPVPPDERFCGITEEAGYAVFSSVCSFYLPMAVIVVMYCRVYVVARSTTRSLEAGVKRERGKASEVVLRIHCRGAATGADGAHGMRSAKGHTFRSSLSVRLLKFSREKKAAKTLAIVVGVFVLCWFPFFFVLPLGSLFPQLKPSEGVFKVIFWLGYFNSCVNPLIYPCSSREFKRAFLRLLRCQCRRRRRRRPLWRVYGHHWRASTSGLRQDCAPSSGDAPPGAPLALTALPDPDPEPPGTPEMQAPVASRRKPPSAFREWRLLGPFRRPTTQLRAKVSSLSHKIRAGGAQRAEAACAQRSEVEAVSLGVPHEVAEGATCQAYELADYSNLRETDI
Assay: not given
Type of assay: cell membranes, HEK293, Membrane. Particulars: hek293.
As for `CC(C)(O)c1ccccc1CC[C@@H](SCC1(CC(=O)O)CC1)c1cccc(/C=C/c2ccc3ccc(Cl)cc3n2)c1` [MONTELUKAST], the IC50 entry is reported as “Not Active”.

Still in this assay, the particulars now being: read-out: IC50.
On to `Clc1ccccc1C(c1ccccc1)(c1ccccc1)n1ccnc1` [CLOTRIMAZOLE], for which the IC50 amounted to 15 µM.

Staying with this assay, now noted: read-out: Ki.
With `Clc1ccccc1C(c1ccccc1)(c1ccccc1)n1ccnc1` [CLOTRIMAZOLE], the Ki is 7.38 µM.

The target in a further assay is T4, Cathepsin G (Homo sapiens, UniProt P08311).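 Note: inhibition of Cathepsin G enzyme activity, tested on an AMC-conjugated peptide substrate; in other assays of this panel Not Active means under 50% inhibition at 10 µM.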
T4 sequence (P08311 whole entry): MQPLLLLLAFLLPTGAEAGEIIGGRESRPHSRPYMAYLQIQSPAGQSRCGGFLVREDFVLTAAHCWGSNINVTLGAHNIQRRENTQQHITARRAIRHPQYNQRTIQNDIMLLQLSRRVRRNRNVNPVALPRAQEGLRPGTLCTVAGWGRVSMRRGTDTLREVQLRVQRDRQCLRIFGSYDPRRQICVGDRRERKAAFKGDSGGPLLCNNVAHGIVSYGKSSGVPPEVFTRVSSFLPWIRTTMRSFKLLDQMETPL
Assay: not given
Format: tissue-based. Particulars: neutrophil.
As to `Clc1ccccc1C(c1ccccc1)(c1ccccc1)n1ccnc1` [CLOTRIMAZOLE], the IC50 entry is “Not Active”.
In the case of `CC(C)(O)c1ccccc1CC[C@@H](SCC1(CC(=O)O)CC1)c1cccc(/C=C/c2ccc3ccc(Cl)cc3n2)c1` [MONTELUKAST], the IC50 entry is on record as “Not Active”.

For the next assay, the target named is T5, Calcitonin receptor (Homo sapiens, UniProt P30988). Note: in other assays of this panel Not Active means under 50% inhibition at 10 µM.
T5 sequence (P30988 whole entry): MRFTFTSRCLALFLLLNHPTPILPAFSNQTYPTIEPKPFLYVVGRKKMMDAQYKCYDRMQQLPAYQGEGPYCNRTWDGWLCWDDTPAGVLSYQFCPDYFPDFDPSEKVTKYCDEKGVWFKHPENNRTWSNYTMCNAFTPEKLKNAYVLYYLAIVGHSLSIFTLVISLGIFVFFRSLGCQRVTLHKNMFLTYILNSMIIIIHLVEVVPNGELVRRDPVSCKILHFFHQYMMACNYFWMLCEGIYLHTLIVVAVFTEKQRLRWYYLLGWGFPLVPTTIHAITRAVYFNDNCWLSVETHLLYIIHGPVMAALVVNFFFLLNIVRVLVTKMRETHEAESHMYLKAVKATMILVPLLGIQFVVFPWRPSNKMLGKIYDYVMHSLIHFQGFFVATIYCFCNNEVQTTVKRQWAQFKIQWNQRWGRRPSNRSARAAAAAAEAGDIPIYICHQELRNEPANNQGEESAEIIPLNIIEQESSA
Assay: not given
Particulars: t47d. Type of assay: cell membranes, Membrane.
Consider `Clc1ccccc1C(c1ccccc1)(c1ccccc1)n1ccnc1` [CLOTRIMAZOLE], for which the IC50 result is on record as “Not Active”.
The same measure, in the same setting: as for `CC(C)(O)c1ccccc1CC[C@@H](SCC1(CC(=O)O)CC1)c1cccc(/C=C/c2ccc3ccc(Cl)cc3n2)c1` [MONTELUKAST], the entry is “Not Active”.
